Test results published in PMC3662613 (Chemmedchem, 2013).
Read-outs that look alike come from different tables or passages of the source.

Assays:
[1] = target: p97 ATPase (Homo sapiens, UniProt P55072); assay: p97 ATPase assay; assay type: biochemical; settings: IC50 ATPase, triplicate, mean ±SD
[2] = test system: ODD-Luc (p97-independent proteasome substrate); assay: ODD-Luc reporter degradation assay, dual reporter HeLa cell line; assay type: cell-based; settings: Homo sapiens, read-out: IC50 ODD-Luc
[3] = test system: HCT15; assay: Cytotoxicity / antiproliferative activity; assay type: cell-based; settings: Homo sapiens
[4] = test system: SW403; assay: Cytotoxicity / antiproliferative activity; assay type: cell-based; settings: Homo sapiens
[5] = HCT-15, 24 h, read-out: Cytotoxicity GI50 HCT15 24 h
[6] = HCT-15, 72 h, read-out: Cytotoxicity GI50 HCT15 72 h
[7] = SW-403, 24 h, read-out: Cytotoxicity GI50 SW403 24 h
[8] = SW-403, 72 h, read-out: Cytotoxicity GI50 SW403 72 h

p97 ATPase, sequence (P55072 whole entry): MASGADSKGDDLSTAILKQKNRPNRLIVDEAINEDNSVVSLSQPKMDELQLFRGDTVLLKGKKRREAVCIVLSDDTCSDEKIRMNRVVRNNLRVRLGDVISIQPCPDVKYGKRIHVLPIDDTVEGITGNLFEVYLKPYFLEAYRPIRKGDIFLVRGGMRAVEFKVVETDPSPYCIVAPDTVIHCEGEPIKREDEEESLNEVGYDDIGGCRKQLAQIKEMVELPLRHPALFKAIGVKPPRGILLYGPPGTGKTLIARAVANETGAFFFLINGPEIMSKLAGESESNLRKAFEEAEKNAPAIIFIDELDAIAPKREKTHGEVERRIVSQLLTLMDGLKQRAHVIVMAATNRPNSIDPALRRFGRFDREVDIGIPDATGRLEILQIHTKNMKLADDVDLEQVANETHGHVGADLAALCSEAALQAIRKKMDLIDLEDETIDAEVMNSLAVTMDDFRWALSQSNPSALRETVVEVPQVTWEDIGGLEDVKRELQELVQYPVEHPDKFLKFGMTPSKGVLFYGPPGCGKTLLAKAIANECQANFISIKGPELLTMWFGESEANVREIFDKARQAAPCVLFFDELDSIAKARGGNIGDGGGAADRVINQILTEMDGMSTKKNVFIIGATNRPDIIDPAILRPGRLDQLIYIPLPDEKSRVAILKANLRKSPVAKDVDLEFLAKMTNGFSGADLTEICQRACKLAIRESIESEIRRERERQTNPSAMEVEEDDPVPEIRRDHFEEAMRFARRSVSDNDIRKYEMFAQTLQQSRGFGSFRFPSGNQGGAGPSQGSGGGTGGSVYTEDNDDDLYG

c1ccc(Nc2nc(Nc3ccccc3)c3ccccc3n2)cc1 [compound 9, N^2,N^4-Diphenylquinazoline-2,4-diamine]
IC50 [1]: 2.6 ± 0.8 µM

COc1cccc2c(NCc3ccccc3)nc(NCc3ccccc3)nc12 [compound 14, N^2,N^4-Dibenzyl-8-methoxyquinazoline-2,4-diamine]
IC50 [2]: 6.5 ± 1.1 µM
GI50 [3, 5]: 1.1 ± 0.3 µM
GI50 [3, 6]: 0.8 ± 0.3 µM
GI50 [4, 7]: 0.8 ± 0.3 µM
GI50 [4, 8]: 0.5 ± 0.2 µM

c1ccc(CNc2nc(N3CCOc4ccccc43)nc3ccccc23)cc1 [compound 15, 2-(2H-Benzo[b][1,4]oxazin-4(3H)-yl)-N-benzylquinazolin-4-amine]
IC50 [2]: > 20 µM
GI50 [3, 5]: 24 ± 3 µM
GI50 [3, 6]: 10 ± 3 µM
GI50 [4, 7]: 21 ± 5 µM
GI50 [4, 8]: 13 ± 4 µM

c1ccc(CNc2nc(N3CCOc4ccccc43)nc3ccsc23)cc1 [compound 17, 2-(2H-Benzo[b][1,4]oxazin-4(3H)-yl)-N-benzylthieno[3,2-d]pyrimidin-4-amine]
IC50 [2]: 17 ± 2 µM
GI50 [3, 5]: 37 ± 7 µM
GI50 [3, 6]: 16 ± 5 µM
GI50 [4, 7]: 18 ± 10 µM
GI50 [4, 8]: 9.7 ± 3.7 µM

COc1cccc2c(NCc3ccccc3)nc(Nc3nc4ccccc4n3C)nc12 [compound 19, N^4-Benzyl-8-methoxy-N^2-(1-methyl-1H-benzo[d]imidazol-2-yl)quinazoline-2,4-diamine]
IC50 [2]: 10 ± 2 µM
GI50 [3, 5]: 1.7 ± 0.8 µM
GI50 [3, 6]: 1.4 ± 0.5 µM
GI50 [4, 7]: 1.7 ± 0.7 µM
GI50 [4, 8]: 1.4 ± 0.5 µM

COc1cccc2c(NCc3ccccc3)nc(-n3c(N)nc4cc(Cl)c(Cl)cc43)nc12 [compound 21, 2-(2-Amino-5,6-dichloro-1H-benzo[d]imidazol-1-yl)-N-benzyl-8-methoxyquinazolin-4-amine]
IC50 [1]: 25 ± 8 µM

COc1cccc2c(NCc3ccccc3)nc(-n3c(N)nc4c(F)cccc43)nc12 [compound 27, 2-(2-Amino-4-fluoro-1H-benzo[d]imidazol-1-yl)-N-benzyl-8-methoxyquinazolin-4-amine]
IC50 [1]: 0.043 ± 0.01 µM

COc1cccc2c(NCc3ccccc3)nc(-n3c(N)nc4cccc(F)c43)nc12 [compound 28, 2-(2-Amino-7-fluoro-1H-benzo[d]imidazol-1-yl)-N-benzyl-8-methoxyquinazolin-4-amine]
IC50 [1]: 0.5 ± 0.1 µM

COc1cccc2c(NCc3ccccc3)nc(-n3c(N)nc4c(C)cccc43)nc12 [compound 29, 2-(2-Amino-4-methyl-1H-benzo[d]imidazol-1-yl)-N-benzyl-8-methoxyquinazolin-4-amine]
IC50 [1]: 0.045 ± 0.006 µM

OCCOc1cccc2c(NCc3ccccc3)nc(N3CCOc4ccccc43)nc12 [compound 33, 2-((2-(2H-Benzo[b][1,4]oxazin-4(3H)-yl)-4-(benzylamino)quinazolin-8-yl)oxy)ethanol]
IC50 [2]: > 20 µM
GI50 [3, 5]: 28 ± 3 µM
GI50 [3, 6]: 17 ± 5 µM
GI50 [4, 7]: 42 ± 9 µM
GI50 [4, 8]: 9.4 ± 2.9 µM

COCCOc1cccc2c(NCc3ccccc3)nc(N3CCOc4ccccc43)nc12 [compound 34, 2-(2H-Benzo[b][1,4]oxazin-4(3H)-yl)-N-benzyl-8-(2-methoxyethoxy)quinazolin-4-amine]
IC50 [2]: 27 ± 5 µM
GI50 [3, 5]: 12 ± 4 µM
GI50 [3, 6]: 9 ± 3 µM
GI50 [4, 7]: 15 ± 7 µM
GI50 [4, 8]: 7.9 ± 2.7 µM

CCN(CC)CCOc1cccc2c(NCc3ccccc3)nc(N3CCOc4ccccc43)nc12 [compound 35, 2-(2H-Benzo[b][1,4]oxazin-4(3H)-yl)-N-benzyl-8-(2-(diethylamino)ethoxy)quinazolin-4-amine]
IC50 [2]: 61 ± 6 µM
GI50 [3, 5]: 13 ± 5 µM
GI50 [3, 6]: 7.1 ± 2.5 µM
GI50 [4, 7]: 11 ± 5 µM
GI50 [4, 8]: 3.9 ± 1 µM

CCCCOc1cccc2c(NCc3ccccc3)nc(N3CCOc4ccccc43)nc12 [compound 37, 2-(2H-Benzo[b][1,4]oxazin-4(3H)-yl)-N-benzyl-8-butoxyquinazolin-4-amine]
IC50 [1]: 2.63 ± 0.7 µM

N#CCOc1cccc2c(NCc3ccccc3)nc(N3CCOc4ccccc43)nc12 [compound 39, 2-((2-(2H-Benzo[b][1,4]oxazin-4(3H)-yl)-4-(benzylamino)quinazolin-8-yl)oxy)acetonitrile]
IC50 [1]: 0.4 ± 0.08 µM
